# Measured values reported in PubChem BioAssay (NCI).
#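 48-hour exposure; five concentrations; linearly interpolated endpoints. GI50 marks 50% less growth. TGI: total growth inhibition.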
# Key:
# Experiment in all cases: NCI-60 cell line screen, 48 h
# CAKI-1 renal = test system: CAKI-1 renal
# HCT-116 colon = test system: HCT-116 colon
# SF-268 CNS = test system: SF-268 CNS
# NCI-H226 lung = test system: NCI-H226 lung
# RPMI-8226 leukemia = test system: RPMI-8226 leukemia
# HCC-2998 colon = test system: HCC-2998 colon
# M14 melanoma = test system: M14 melanoma
# UACC-257 melanoma = test system: UACC-257 melanoma
# MCF7 breast = test system: MCF7 breast
# U251 CNS = test system: U251 CNS
compound,measurement,setting,value
COc1cc2c3c(n(CCCBr)c(=O)c2cc1OC)-c1ccc(NC(C)=O)cc1C3=O,GI50,CAKI-1 renal,1090 nM
same,TGI,CAKI-1 renal,7.21 µM
same,GI50,HCT-116 colon,2580 nM
same,TGI,HCT-116 colon,18.1 µM
same,GI50,SF-268 CNS,2110 nM
same,TGI,SF-268 CNS,> 100 µM
same,GI50,NCI-H226 lung,5.17 µM
same,TGI,NCI-H226 lung,57.3 µM
same,GI50,RPMI-8226 leukemia,5.28 µM
same,TGI,RPMI-8226 leukemia,27.2 µM
same,GI50,HCC-2998 colon,11.9 µM
same,TGI,HCC-2998 colon,43.9 µM
same,GI50,M14 melanoma,4.33 µM
same,TGI,M14 melanoma,20.6 µM
same,GI50,UACC-257 melanoma,28.1 µM
same,TGI,UACC-257 melanoma,> 100 µM
same,GI50,MCF7 breast,1820 nM
same,TGI,MCF7 breast,> 100 µM
same,GI50,U251 CNS,1170 nM
same,TGI,U251 CNS,44.1 µM
